Data on one compound can be found in patent US20030092753A1, “Methods for the treatment and prevention of neurodegenerative conditions” (Wyeth, priority 1999, published 2003).

The test relates to rat hippocampal slices. Briefly: Reduction of azide-induced ischemic efflux of glutamate in rat hippocampal slices. The format is cell-based. The note with it: AUC vs control, statistically significant. As for the experimental part:
Adatanserin was evaluated for its ability to reduce the azide-induced ischemic efflux of glutamate in rat hippocampal slices. Three Krebs buffers were used in the experiments. Normal Krebs buffer consisted of a solution containing the following: (122 mM NaCl, 3 mM KCl, 24 mM NaHCO3, 10 mM glucose, 0.315 mM K2HPO4, 1.2 mM MgSO4, 4 mM CaCl2). Aglycemic Krebs buffer was similar to the normal buffer with the exception that glucose was not added. Ischemic Krebs buffer was the aglycemic solution which contained varying concentrations of sodium azide (0-30 mM).
Rat hippocampi were dissected on a cold platform and suspended in ice cold oxygenated normal Krebs buffer. The tissue was cross-chopped at 350 microns on a McIlwain tissue chopper, then resuspended and washed three times with ice cold normal Krebs buffer. […] Amino acid concentrations were analyzed with reverse phase HPLC on a catacholarine column (Keystone Scinetific, 150×3 mm) employing an 0.05 M acetate/methanol gradient. […] Amino acids were visualized by derivatization with naphthalene-2,3-dicarboxaldehyde and fluorimetric detection (Dawson, L. A. et al., Improved Temporal Resolution of Microdialysis Measurement of Glutamate and Aspartate Using Capillary Electrophoresis with Laser Induced Fluorescence Detection. J. Chromatogr. B 1997, 694, 1204-1212). […]

On to `O=C(NCCN1CCN(c2ncccn2)CC1)C12CC3CC(CC(C3)C1)C2` [adatanserin, N-[2-[4-(2-pyrimidinyl)-1-piperazinyl]ethyl]tricyclo[3.3.1.13.7]decane-1-carboxamide], for which the “reduction of glutamate release (azide-induced ischemic efflux)” value amounted to 72% (adatanserin 100 nM) and 71% (adatanserin 1000 nM (1 μM)).
